From patent publication US20250186456A1, “PYRIMIDINE-FUSED CYCLIC COMPOUND AND PREPARATION METHOD AND USE THEREOF” (Genfleet Therapeutics (Shanghai) Inc., priority 2021, published 2025)
Where two headings read alike, the source gives them in different places.

Columns and labels:
Format in all cases: cell-based, human
[1] = system: AGS cells (KRAS G12D); assay: Cell proliferation inhibition assay, 3D, CellTiter-Glo 3D, AGS; conditions: AGS 3D sphere model, 5 days incubation
Summary of the method: (§1)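 Spheroids (800 AsPC-1 or 400 AGS cells/well; RPMI-1640 or F-12K with 10% FBS) formed overnight, then were dosed on day 2 with a 3.16-fold series at 0.1% DMSO. After 5 days, viability was read by CellTiter-Glo 3D luminescence, and IC50 came from four-parameter fits of inhibition versus DMSO control and medium blank.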

[2] = system: AsPC-1 cells (KRAS G12D mutation); assay: Cell proliferation inhibition assay, 3D, CellTiter-Glo 3D, AsPC-1; conditions: AsPC-1 3D sphere model, 5 days incubation
Summary of the method: as §1

[3] = system: p-ERK in AGS cells (KRAS G12D mutation); assay: Cell p-ERK assay (HTRF, Advance ERK phospho-T202/Y204 kit); conditions: AGS cells, 3 hours incubation with compound, HTRF, read-out: AGS p-ERK IC50
Summary of the method: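 AGS cells (endogenous KRAS G12D) seeded at ~20000 cells/well overnight, then treated 3 h with 3.16-fold compound dilutions, 0.1% DMSO final. Lysates assayed for phospho-T202/Y204 ERK by HTRF after 4 h antibody incubation; inhibition vs DMSO and blank, IC50 by four-parameter fit.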

| IC50 [1] | IC50 [2] | IC50 [3] | Compound | IC50 ([1]; Homo sapiens, 120 h) | IC50 ([2]; Homo sapiens, ASPC1, 120 h) | IC50 ([3]; Homo sapiens) |
| --- | --- | --- | --- | --- | --- | --- |
|  |  |  | CCc1cccc2c(F)c(N)cc(-c3nc4c5c(nc(OCC67CCCN6CC(F)(F)C7)nc5c3F)N3C[C@H]5CC[C@H](N5)[C@H]3[C@H](C)O4)c12 (stereo partly drawn) [Example Z729, 4-((5S,5aS,6S,9R)-12-((2,2-difluorotetrahydro-1H-pyrrolizin-7a (5H)-yl)methoxy)-1-fluoro-5-methyl-5a,6,7,8,9,10-hexahydro-5H-4-oxa-3,10a, 11, 13, 14-pentaaza-6,9-methanonaphtho[1,8-ab]heptalene-2-yl)-5-ethyl-1-fluoronaphthalen-2-amine] | 584 nM | 757 nM | 212 nM |
|  |  |  | C=C1CN2C[C@H](F)CC2(COc2nc3c4c(nc(-c5cccc(Cl)c5C(F)(F)F)c(F)c4n2)O[C@@H](C)[C@@H]2[C@@H]4CC[C@H](CN32)N4)C1 (stereo partly drawn) [Example Z682, (5S,5aS,6S,9R)-2-(3-chloro-2-(trifluoromethyl)phenyl)-1-fluoro-12-(((2R)-2-fluoro-6-methylenetetrahydro-1H-pyrrolizin-7a (5H)-yl)methoxy)-5-methyl-5a,6,7,8,9,10-hexahydro-5H-4-oxa-3,10a, 11,13,14-pentaaza-6,9-methanonaphtho[1,8-ab]heptalene] | 146 nM | 237 nM | 82 nM |
|  |  |  | C#Cc1c(F)ccc2cccc(-c3nc4c5c(nc(OCC67CC(=C)CN6C[C@H](F)C7)nc5c3F)N3C[C@H]5CC[C@H](N5)[C@H]3[C@H](CO)O4)c12 (stereo partly drawn) [Example Z654, ((5R,5aS,6S,9R)-2-(8-ethynyl-7-fluoronaphthalen-1-yl)-1-fluoro-12-(((2R)-2-fluoro-6-methylenetetrahydro-1H-pyrrolizin-7a (5H)-yl)methoxy)-5a,6,7,8,9,10-hexahydro-5H-4-oxa-3,10a,11,13,14-pentaaza-6,9-methanonaphtho[1,8-ab]heptalen-5-yl)methanol] | 726 nM | 389 nM | 136 nM |
|  |  |  | C#Cc1cccc2cc(N)cc(-c3nc4c5c(nc(OCC6(CN7CCOCC7)CC6)nc5c3F)N3C[C@H]5CC[C@H](N5)[C@H]3[C@H](C)O4)c12 [Example Z700, 5-Ethynyl-4-((5S,5aS,6S,9R)-1-Fluoro-5-Methyl-12-((1-(Morpholinomethyl)Cyclopropyl)Methoxy)-5a,6,7,8,9,10-Hexahydro-5H-4-Oxa-3,10a, 11,13,14-Pentaaza-6,9-Methanonaphtho[1,8-Ab]Heptalen-2-Yl) Naphthalen-2-Amine] | 1.91 nM | 2.14 nM | 0.39 nM |
|  |  |  | C#Cc1cccc2cccc(-c3nc4c5c(nc(OCC67CC(=C)CN6C[C@H](F)C7)nc5c3F)N3C[C@H]5CC[C@H](N5)[C@H]3[C@H](C)O4)c12 (stereo partly drawn) [Example Z678, (5S,5aS,6S,9R)-2-(8-ethynylnaphthalen-1-yl)-1-fluoro-12-(((2R)-2-fluoro-6-methylenetetrahydro-1H-pyrrolizin-7a (5H)-yl)methoxy)-5-methyl-5a,6,7,8,9,10-hexahydro-5H-4-oxa-3,10a, 11, 13,14-pentaaza-6,9-methanonaphtho[1,8-ab]heptalene] | 100 nM | 73.5 nM | 12.4 nM |
| 26.5 nM | 90.4 nM | 34.1 nM | C#Cc1c(F)ccc2cccc(-c3nc4c5c(nc(OCC67CC(=C)CN6CCC76CC6)nc5c3F)N3C[C@H]5CC[C@H](N5)[C@H]3[C@H](C)O4)c12 (stereo partly drawn) [Example Z602, (58,5aS,6S,9R)-2-(8-ethynyl-7-fluoronaphthalen-1-yl)-1-fluoro-5-methyl-12-((6′-methylenetetrahydrospiro[cyclopropane-1, 1′-pyrrolizin]-7a′ (5′H)-yl)methoxy)-5a,6,7,8,9,10-hexahydro-5H-4-oxa-3,10a,11,13,14-pentaaza-6,9-methanonaphtho[1,8-ab]heptalene] |  |  |  |
|  |  |  | C#Cc1cccc2nc(N)cc(-c3nc4c5c(nc(OCC67CCCN6CC(F)(F)C7)nc5c3F)N3C[C@H]5CC[C@H](N5)[C@H]3[C@H](C)O4)c12 (stereo partly drawn) [Example Z726, 4-((5S,5aS,6S,9R)-12-((2,2-difluorotetrahydro-1H-pyrrolizin-7a (5H)-yl)methoxy)-1-fluoro-5-methyl-5a,6,7,8,9,10-hexahydro-5H-4-oxa-3,10a, 11,13,14-pentaaza-6,9-methanonaphtho[1,8-ab]heptalene-2-yl)-5-ethynylquinolin-2-amine] | 133 nM | 638 nM | 78.8 nM |
|  |  |  | C#Cc1c(F)ccc2cccc(-c3nc4c5c(nc(OCC(=C)CN6CCOCC6)nc5c3F)N3C[C@H]5CC[C@H](N5)[C@H]3[C@H](C)O4)c12 [Example Z687, (5S,5aS,6S,9R)-2-(8-ethynyl-7-fluoronaphthalen-1-yl)-1-fluoro-5-methyl-12-((2-(morpholinomethyl)allyl)oxy)-5a,6,7,8,9,10-hexahydro-5H-4-oxa-3,10a,11,13,14-pentaaza-6,9-methanonaphtho[1,8-ab]heptalene] | 392 nM | 513 nM | 193 nM |
| 10.8 nM | 11.8 nM | 2.88 nM | C#Cc1cccc2cc(N)cc(-c3nc4c5c(nc(OC[C@@H]6C[C@@H](F)CN6C)nc5c3F)N3C[C@H]5CC[C@H](N5)[C@H]3[C@H](C)O4)c12 [Example Z732, 5-ethynyl-4-((5S,5aS,6S,9R)-1-fluoro-12-(((28,4R)-4-fluoro-1-methylpyrrolidin-2-yl)methoxy)-5-methyl-5a,6,7,8,9,10-hexahydro-5H-4-oxa-3,10a, 11, 13, 14-pentaaza-6,9-methanonaphtho[1,8-ab]heptalene-2-yl) naphthalen-2-amine] |  |  |  |
|  |  |  | C#Cc1c(F)ccc2cccc(-c3nc4c5c(nc(OC[C@]67CCCN6CC(=C)C7)nc5c3F)N3C[C@H]5CC[C@H](N5)[C@H]3[C@H](C)O4)c12 (single isomer, unassigned) [Example Z636] | 10.9 nM | 30.6 nM | 10.5 nM |
|  |  |  | C#Cc1c(F)ccc2cccc(-c3nc4c5c(nc(OCC67CC(=C)CN6[C@H]6C[C@H]6C7)nc5c3F)N3C[C@H]5CC[C@H](N5)[C@H]3[C@H](C)O4)c12 (stereo partly drawn) [Example Z604, (5S,5aS,6S,9R)-2-(8-ethynyl-7-fluoronaphthalen-1-yl)-1-fluoro-5-methyl-12-(((1aS,6aS)-4-methylenehexahydrocyclopropa[b]pyrrolizin-5a (3H)-yl)methoxy)-5a,6,7,8,9,10-hexahydro-5H-4-oxa-3,10a, 11, 13,14-pentaaza-6,9-methanonaphtho[1,8-ab]heptalene] | 573 nM | 468 nM | 95 nM |
|  |  |  | Cc1cc(-c2nc3c4c(nc(OCC5(CN6CCOCC6)CC5)nc4c2F)N2C[C@H]4CC[C@H](N4)[C@H]2[C@H](C)O3)c(C)c(N)c1C1CC1 [Example Z716, 2-cyclopropyl-5-((5S,5aS,6S,9R)-1-fluoro-5-methyl-12-((1-(morpholinomethyl)cyclopropyl)methoxy)-5a,6,7,8,9,10-hexahydro-5H-4-oxa-3,10a, 11,13,14-pentaaza-6,9-methanonaphtho[1,8-ab]heptalen-2-yl)-3,6-dimethylaniline] | 48.6 nM | 89.2 nM | 81.8 nM |
|  |  |  | C#Cc1cccc2cc(N)cc(-c3nc4c5c(nc(OC[C@@]67CCCN6CC(F)(F)C7)nc5c3F)N3C[C@H]5CC[C@H](N5)[C@H]3[C@H](C)O4)c12 (single isomer, unassigned) [Example Z735] | 35.2 nM | 18.1 nM | 5.62 nM |
|  |  |  | C#Cc1cccc2cc(O)cc(-c3nc4c5c(nc(OC[C@@]67CCCN6C[C@H](F)C7)nc5c3F)N3C[C@H]5CC[C@H](N5)[C@H]3[C@H](C)O4)c12 [Example Z384, 5-ethynyl-4-((5S,5aS,6S,9R)-1-fluoro-12-(((2R,7aS)-2-fluorotetrahydro-1H-pyrrolizin-7a (5H)-yl)methoxy)-5-methyl-5a,6,7,8,9,10-hexahydro-5H-4-oxa-3,10a, 11,13,14-pentaaza-6,9-methanonaphtho[1,8-ab]heptalen-2-yl) naphthalen-2-ol] | 1.5 nM | 7.34 nM | 0.65 nM |
| 598 nM | 694 nM | 72.6 nM | C#Cc1c(F)ccc2cccc(-c3nc4c5c(nc(OC[C@@]67CC(=C)CN6CC[C@@H]7OC)nc5c3F)N3C[C@H]5CC[C@H](N5)[C@H]3[C@H](C)O4)c12 (single isomer, unassigned) [Example Z696] |  |  |  |
| 107 nM | 405 nM | 81.9 nM | C#Cc1c(F)ccc2cccc(-c3nc4c5c(nc(OCC67CCCN6[C@H]6C[C@H]6C7)nc5c3F)N3C[C@H]5CC[C@H](N5)[C@H]3[C@H](C)O4)c12 (stereo partly drawn) [Example Z625, (5S,5aS,6S,9R)-2-(8-Ethynyl-7-Fluoronaphthalen-1-Yl)-1-Fluoro-12-(((1aS,6aS)-Hexahydrocyclopropa[b]Pyrrolizin-Sa (3H)-Yl)Methoxy)-5-Methyl-5a,6,7,8,9,10-Hexahydro-5H-4-Oxa-3,10a,11,13,14-Pentaaza-6,9-Methanonaphtho[1,8-Ab]Heptalene] |  |  |  |

| Compound | IC50 [1] | IC50 [2] | IC50 [3] | IC50 ([1]; Homo sapiens, 120 h) | IC50 ([2]; Homo sapiens, ASPC1, 120 h) | IC50 ([3]; Homo sapiens) |
| --- | --- | --- | --- | --- | --- | --- |
| 5-ethynyl-3-fluoro-4-((58,5aS,6S,9R)-1-fluoro-S-methyl-12-((1-(morpholinomethyl)cyclopropyl)methoxy)-5a,6,7,8,9,10-hexahydro-5H-4-oxa-3,10a, 11, 13,14-pentaaza-6,9-methanonaphtho[1,8-ab]heptalene-2-yl) naphthalen-2-amine [Example Z707] | 7.44 nM | 5.24 nM | 0.95 nM |  |  |  |
